Test results from patent publication US7524885B2, “Compounds that stimulate glucose utilization and methods of use” (The Governors of the University of Alberta, priority 2002, dated 2009).

tested on: isolated working rat heart; assay: Glucose oxidation in isolated perfused working rat heart ([U-14C]glucose, 14CO2 production); conditions: Table 2B; screening concentration 100 μM; isolated working rat heart; read-out: Glucose Oxidation (% above control)
Protocol: Rat hearts were cannulated for isolated working heart 60 minute aerobic perfusions as described in J Pharmacol Exp Ther. 1993; 264:135-144, the entire disclosure of which is incorporated herein by reference.
Male Sprague-Dawley rats (0.3-0.35 kg) were anesthetized with pentobarbital sodium (60 mg/kg IP) and hearts were quickly excised, the aorta was cannulated and a retrograde perfusion at 37° C. was initiated at a hydrostatic pressure of 60 mm Hg. Hearts were trimmed of excess tissue, and the pulmonary artery and the opening to the left atrium were then cannulated. After 15 min of Langendorff perfusion, hearts were switched to the working mode by clamping the aortic inflow line from the Langendorff reservoir and opening the left atrial inflow line. The perfusate was delivered from an oxygenator into the left atrium at a constant preload pressure of 11 mm Hg. Perfusate was ejected from spontaneously beating hearts into a compliance chamber (containing 1 ml of air) and into the aortic outflow line. The afterload was set at a hydrostatic pressure of 80 mm Hg. All working hearts were perfused with Krebs'-Henseleit solution containing calcium 2.5 mmol/L, glucose 5.5 mmol/L, 3% bovine serum albumin (fatty acid free, initial fractionation by heat shock, Sigma), and with 1.2 mmol/L palmitate. Palmitate was bound to the albumin as described in J Bio Chem. 1992; 267:3825-3831, the entire disclosure of which is incorporated herein by reference.
The perfusate was recirculated, and pH was adjusted to 7.4 by bubbling with a mixture containing 95% O2 and 5% CO2.
Spontaneously beating hearts were used in all perfusions. Heart rate and aortic pressure were measured with a Biopac Systems Inc. blood pressure transducer connected to the aortic outflow line. Cardiac output and aortic flow were measured with Transonic T206 ultrasonic flow probes in the preload and afterload lines, respectively. Coronary flow was calculated as the difference between cardiac output and aortic flow. Cardiac work was calculated as the product of systolic pressure and cardiac output.
Measurement of Glucose Oxidation: Glucose oxidation was measured simultaneously by perfusing hearts with [U-^14C] glucose according to the procedures discussed in Saddik M, et al., J Bio Chem. 1992; 267:3825-3831. The entire disclosure of this reference is incorporated herein by reference. The total myocardial ^14CO2 production was determined at 10-min intervals from the 60-min aerobic period. Glucose oxidation rates were determined by quantitative measurement of ^14CO2 production as described in Barbour RL, et al., Biochemistry. 1984; […]. The entire disclosure of this reference is incorporated herein by reference. ^14CO2 production for the control group were compared with the ^14CO2 production for the group treated with cyclopropanecarboxylic acid, 2-[2-(2-methoxy-ethoxy)-ethoxy]-ethyl ester. Results are shown on FIG. 1 and TABLE 2A.
The procedure of Example A for was followed except that cyclobutanecarboxylic acid, 2-[2-(2-methoxy-ethoxy)-ethoxy]-ethyl ester in 1 μM, 10 μM, 100 μM and 1000 μM amounts was added to the buffer in place of the cyclopropanecarboxylic acid, 2-[2-(2-methoxy-ethoxy)-ethoxy]-ethyl ester. The results are illustrated in FIG. 2 and TABLE 2A.
The procedure of Example A was followed except that cyclopropanecarboxylic acid, 2-isopropoxy-ethyl ester in 1 μM, 10 μM, 100 μM and 1000 μM amounts was added to the buffer in place of the cyclopropanecarboxylic acid, 2-[2-(2-methoxy-ethoxy)-ethoxy]-ethyl ester. The results are illustrated in FIG. 3 and TABLE 2A.
The procedure of Example A was followed except that various cyclobutanecarboxylic acid derivatives, cyclopropanecarboxylic acid derivatives and cyclobutanecarboxylic acid in the amounts of 100 μM or 1000 μM was added to the buffer in place of the cyclopropanecarboxylic acid, 2-[2-(2-methoxy-ethoxy)-ethoxy]-ethyl ester.

**Q.** With `CCC1(COC(=O)C2CC2)COCOC1` [Compound 40MM093, Cyclopropanecarboxylic acid 5-ethyl-[1,3]-dioxan-5.ylmethyl ester] as the molecule, how does the activation at 100 µM read?
**A.** 260%

**Q.** For `O=C(OCC1COc2ccccc2O1)C1CC1` (stereo not shown) [Compound 41MM094, Cyclopropanecarboxylic acid 2,3-dihydro-benzo(1,4)dioxin-2-ylmethyl ester], which activation at 100 µM is on record?
**A.** 389%

**Q.** With `O=C(SCc1ccco1)C1CC1` [Compound 42MM095, Cyclopropanecarbothioic acid S-furan-2-yl methyl ester] as the molecule, how does the activation at 100 µM read?
**A.** 314%

**Q.** Which activation at 100 µM does the source give for `CCOCCOC(=O)C1(c2ccc(OC)cc2)CC1` [Compound 43MM096, 1-(4-methoxy-phenyl)-cyclopropanecarboxylic acid 2-ethoxy-ethyl ester] here?
**A.** 93%

**Q.** Which activation at 100 µM does the source give for `COCCOCCOCCOC(=O)C1(c2ccccc2)CC1` [Compound 44MM097, 1-phenyl-cyclopropanecarboxylic acid 2[2-(2-methoxy-ethoxy)-ethoxy]-ethyl ester] here?
**A.** 125%

**Q.** For `O=C(OCCOC(=O)C1CC1)C1CC1` [Compound 45MM098, Cyclopropanecarboxylic acid 2-cyclopropanecarbonyloxy-ethyl ester], which activation at 100 µM is on record?
**A.** 358%

**Q.** Which activation at 100 µM does the source give for `O=C(OCCOC(=O)C1(c2ccccc2)CC1)C1(c2ccccc2)CC1` [Compound 46MM099, 1-(1-Phenyl-1-cyclopropanecarboxylic acid)-2-(1-phenyl-1-cyclopropanecarbonyloxy)-ethyl ester] here?
**A.** 93%

same assay, conditions: intact heart

**Q.** For `O=C(O)C1CC1` [MM001, Cyclopropanecarboxylic acid], which “stimulation of glucose oxidation in the heart (in words)” value is on record?
**A.** stimulator of glucose oxidation

**Q.** Which “stimulation of glucose oxidation in the heart (in words)” value does the source give for `O=C(O)C1CCC1` [MM013, Cyclobutanecarboxylic acid] here?
**A.** stimulate glucose oxidation

tested on: not given; assay: not given; conditions: cited from earlier work

**Q.** For `O=C(O)C(Cl)Cl` [DCA, dichloroacetate], which “biological half-life (in words)” value is on record?
**A.** short biological half-life
